Legend:
[1] = system: OVCAR 3 Cancer cells; experiment: Nano formulations in animals with implanted tumor: side effects; conditions: mouse, in vivo
Experimental: Animals—Immunodeficient, female athymic mice aged 5-6 weeks and weighing between 18 and 20 g were purchased from Taconic Biosciences (Albany, N.Y.). All animal studies were conducted at the animal facility of the Veteran Affairs Medical Center, Albany, N.Y. in accordance with and approved by institutional guidelines for humane animal treatment and according to the current guidelines. Mice were maintained under specific pathogen-free conditions and housed under controlled conditions of temperature (20-24° C.) and humidity (60-70%) and 12 h light/dark cycle with ad libitum access to water and food. Mice were allowed to acclimatize for 5 d prior to the start of study.
Treatment—OVCAR 3 Cancer cells (1×10^6) were implanted subcutaneously in right flank of each animal. In the first set of experiments, control, free Quercetin (3 mg/kg), NPS-quercetin(3 mg/kg), and FA-NPs-quercetin (3 mg/kg) were injected subcutaneously to the mice everyday (for 14 days). The control was PBS, after humane sacrifice of animals at 14 days, tumors were harvested and amount of QC was measured.

[2] = cited from earlier work

O=c1c(O)c(-c2ccc(O)c(O)c2)oc2cc(O)cc(O)c12 [Quercetin, quercetin]
adverse toxic effect on the health of tumor bearing mice [1]: does not have any adverse toxic effect | water solubility [2]: not water soluble

Source: patent US20220087946A1, “COMPOSITIONS, METHODS, SYSTEMS AND/OR KITS FOR PREVENTING AND/OR TREATING NEOPLASMS” (Research Cancer Institute of America, priority 2017, published 2022)
